Measurements as given in US11246893B2, “Bacteriocin production, compositions and methods of use” (ISOThrive Inc., priority 2016, dated 2022).

Legend:
[1] = system: Weissella viridescens NRRL B-1951; assay: tube assay, W. viridescens growth with nisin A or Z (absorbance); format: cell-based; details: 15 Hr
Description: 100 g De-Man, Rogosa and Sharpe (MRS) media was prepared in a 500 mL Erlenmeyer to contain 5.5% solids in deionized water (18.2 MΩ, Hydro Service and Supplies. Gaithersburg, Md.). The media was autoclaved (121° C. 15 min), cooled, and inoculated with 1 mL (0.5 mL culture+0.5 mL glycerol, 40%; frozen at −78° C.) of Weissella viridescens NRRL B-1951 (test strain). The culture was incubated at 31° C. overnight (15 Hr).
The next day, stock solutions of either nisin A or Z were prepared in deionized water to contain 31.3 and 33.7 μg/g of each peptide.
100 g MRS media was prepared to contain 5.5% solids. Two sets (one set each for nisin A and nisin Z) of eight Hach-type tubes (Kimble Chase 45066-16100) were prepared. Within each set, in order was added 5.00, 4.95, 4.90, 4.75, 4.50, 4.00, 3.50 and 3.00 g MRS media. The tubes were sealed and autoclaved.
To each tube was added, of the appropriate nisin stock, 0.00, 0.05, 0.10, 0.25, 0.50, 1.00, 1.50, and 2.00 g. Each tube was inoculated with 0.25 g of late-log W. viridescens NRRL B-1951 culture. The tubes were sealed and the absorbance at 600 nm was quickly measured (Hach DR900). The tubes were segregated by set and incubated at 31° C. overnight (15 Hr).
Each tube was thoroughly mixed to suspend settled cells and the absorbance was measured again at 600 nm. The final absorbance values for each sample were corrected for their respective background (taken just after inoculation, scattered light from added cells). The corrected absorption values were a measure of W. viridescens growth.
As indicated above, the absorbance of the culture was measured again at 600 nm as a measure of W. viridescens growth, and the absorbance values for each sample were corrected for their respective background. These corrected absorption values plotted against nisin concentration and minimum inhibiting concentration approximated via regression.
The results were fit via four parameter logistic regression (4PLR), combined into a continuous function with a second assay set (0.65-9.99 μg/g), and are shown in FIG. 11A.

[2] = system: Weissella viridescens NRRL B-1951; assay: HPLC of tube supernatants: glucose consumption and organic acid production; format: cell-based; details: for acetic acid in fermentation media: MRS media originally contained 7% acetate
Description: Each tube was sampled (1.5 mL conical polypropylene centrifuge tubes) and centrifuged at 10 kRPM for 10 minutes to remove and suspended cells. The resulting supernatants were filtered (0.2 μm nylon), diluted to 0.5% solids, and analyzed by high pressure liquid chromatography (HPLC, Agilent 1100, refractive index detector and BioRad Ainex HPX-87H column) for consumption of glucose and production of organic acids.
Note that the MRS media originally contained 7% acetate; therefore 7% should be subtracted from the values for acetate in Table 8 to ascertain the amount of acetate generated during the assay.

head/neck tumors = details: mouse, in vivo; cited from earlier work

With “MSTKDFNLDLVSVSKKDSGASPRITSISLCTPGCKTGALMGCNMKTATCNCSIHVSN [nisin Z]” the “91516 ABS 610f” value ([1]; tube Z2, nisin Z 0.34 μg/g) was 1.618, the “Corrected ABS 610rs” value ([1]; tube Z2, nisin Z 0.34 μg/g) was 1.146 and the “91516 ABS 610f” value ([1]; tube Z3, nisin Z 0.77 μg/g) was 1.526. The “Corrected ABS 610rs” value ([1]; tube Z3, nisin Z 0.77 μg/g) was 1.062, the “91516 ABS 610f” value ([1]; tube Z4, nisin Z 1.58 μg/g) was 1.296 and the “Corrected ABS 610rs” value ([1]; tube Z4, nisin Z 1.58 μg/g) was 0.841. For the same sequence, the “91516 ABS 610f” value ([1]; tube Z5, nisin Z 3.19 μg/g) was 0.801, the “Corrected ABS 610rs” value ([1]; tube Z5, nisin Z 3.19 μg/g) was 0.359 and the “91516 ABS 610f” value ([1]; tube Z6, nisin Z 6.31 μg/g) was 0.426. For the same sequence, the “Corrected ABS 610rs” value ([1]; tube Z6, nisin Z 6.31 μg/g) was 0.003, the “91516 ABS 610f” value ([1]; tube Z7, nisin Z 9.54 μg/g) was 0.384 and the “Corrected ABS 610rs” value ([1]; tube Z7, nisin Z 9.54 μg/g) was 0.001. The “91516 ABS 610f” value ([1]; tube Z8, nisin Z 12.61 μg/g) was 0.386, the “Corrected ABS 610rs” value ([1]; tube Z8, nisin Z 12.61 μg/g) was 0.001 and the “Maltotriose in fermentation media” value ([2]; tube Z2, nisin Z 0.34 μg/g) was 0.282 %/brix. For the same sequence, the “ethanol in fermentation media” value ([2]; tube Z2, nisin Z 0.34 μg/g) was 0.057 %/brix, the “formic acid in fermentation media” value ([2]; tube Z2, nisin Z 0.34 μg/g) was 0.303 %/brix and the “fructose in fermentation media” value ([2]; tube Z2, nisin Z 0.34 μg/g) was 0.000 %/brix. The “glucose in fermentation media” value ([2]; tube Z2, nisin Z 0.34 μg/g) was 22.988 %/brix, the “glycerol in fermentation media” value ([2]; tube Z2, nisin Z 0.34 μg/g) was 0.343 %/brix and the “lactic acid in fermentation media” value ([2]; tube Z2, nisin Z 0.34 μg/g) was 6.742 %/brix. For the same sequence, the “maltose in fermentation media” value ([2]; tube Z2, nisin Z 0.34 μg/g) was 0.722 %/brix, the “acetic acid in fermentation media” value ([2]; tube Z2, nisin Z 0.34 μg/g) was 8.273 %/brix and the “Maltotriose in fermentation media” value ([2]; tube Z4, nisin Z 1.58 μg/g) was 0.265 %/brix. The “ethanol in fermentation media” value ([2]; tube Z4, nisin Z 1.58 μg/g) was 0.083 %/brix, the “formic acid in fermentation media” value ([2]; tube Z4, nisin Z 1.58 μg/g) was 0.309 %/brix and the “fructose in fermentation media” value ([2]; tube Z4, nisin Z 1.58 μg/g) was 0.000 %/brix. The “glucose in fermentation media” value ([2]; tube Z4, nisin Z 1.58 μg/g) was 24.153 %/brix, the “glycerol in fermentation media” value ([2]; tube Z4, nisin Z 1.58 μg/g) was 0.337 %/brix and the “lactic acid in fermentation media” value ([2]; tube Z4, nisin Z 1.58 μg/g) was 5.081 %/brix. For the same sequence, the “maltose in fermentation media” value ([2]; tube Z4, nisin Z 1.58 μg/g) was 1.007 %/brix, the “acetic acid in fermentation media” value ([2]; tube Z4, nisin Z 1.58 μg/g) was 8.247 %/brix and the “Maltotriose in fermentation media” value ([2]; tube Z5, nisin Z 3.19 μg/g) was 0.311 %/brix. For the same sequence, the “ethanol in fermentation media” value ([2]; tube Z5, nisin Z 3.19 μg/g) was 0.067 %/brix, the “formic acid in fermentation media” value ([2]; tube Z5, nisin Z 3.19 μg/g) was 0.281 %/brix and the “fructose in fermentation media” value ([2]; tube Z5, nisin Z 3.19 μg/g) was 0.000 %/brix. The “glucose in fermentation media” value ([2]; tube Z5, nisin Z 3.19 μg/g) was 24.698 %/brix, the “glycerol in fermentation media” value ([2]; tube Z5, nisin Z 3.19 μg/g) was 0.321 %/brix and the “lactic acid in fermentation media” value ([2]; tube Z5, nisin Z 3.19 μg/g) was 2.995 %/brix. The “maltose in fermentation media” value ([2]; tube Z5, nisin Z 3.19 μg/g) was 0.750 %/brix, the “acetic acid in fermentation media” value ([2]; tube Z5, nisin Z 3.19 μg/g) was 8.026 %/brix and the “Maltotriose in fermentation media” value ([2]; tube Z6, nisin Z 6.31 μg/g) was 0.247 %/brix. The “ethanol in fermentation media” value ([2]; tube Z6, nisin Z 6.31 μg/g) was 0.059 %/brix, the “formic acid in fermentation media” value ([2]; tube Z6, nisin Z 6.31 μg/g) was 0.267 %/brix and the “fructose in fermentation media” value ([2]; tube Z6, nisin Z 6.31 μg/g) was 0.000 %/brix. For the same sequence, the “glucose in fermentation media” value ([2]; tube Z6, nisin Z 6.31 μg/g) was 25.353 %/brix, the “glycerol in fermentation media” value ([2]; tube Z6, nisin Z 6.31 μg/g) was 0.320 %/brix and the “lactic acid in fermentation media” value ([2]; tube Z6, nisin Z 6.31 μg/g) was 1.351 %/brix. The “maltose in fermentation media” value ([2]; tube Z6, nisin Z 6.31 μg/g) was 0.726 %/brix, the “acetic acid in fermentation media” value ([2]; tube Z6, nisin Z 6.31 μg/g) was 7.969 %/brix and the “Maltotriose in fermentation media” value ([2]; tube Z7, nisin Z 9.54 μg/g) was 0.291 %/brix. For the same sequence, the “ethanol in fermentation media” value ([2]; tube Z7, nisin Z 9.54 μg/g) was 0.065 %/brix, the “formic acid in fermentation media” value ([2]; tube Z7, nisin Z 9.54 μg/g) was 0.263 %/brix and the “fructose in fermentation media” value ([2]; tube Z7, nisin Z 9.54 μg/g) was 0.000 %/brix. The “glucose in fermentation media” value ([2]; tube Z7, nisin Z 9.54 μg/g) was 25.501 %/brix, the “glycerol in fermentation media” value ([2]; tube Z7, nisin Z 9.54 μg/g) was 0.335 %/brix and the “lactic acid in fermentation media” value ([2]; tube Z7, nisin Z 9.54 μg/g) was 1.431 %/brix. The “maltose in fermentation media” value ([2]; tube Z7, nisin Z 9.54 μg/g) was 0.895 %/brix, the “acetic acid in fermentation media” value ([2]; tube Z7, nisin Z 9.54 μg/g) was 8.026 %/brix and the “Maltotriose in fermentation media” value ([2]; tube Z8, nisin Z 12.61 μg/g) was 0.318 %/brix. For the same sequence, the “ethanol in fermentation media” value ([2]; tube Z8, nisin Z 12.61 μg/g) was 0.148 %/brix, the “formic acid in fermentation media” value ([2]; tube Z8, nisin Z 12.61 μg/g) was 0.299 %/brix and the “fructose in fermentation media” value ([2]; tube Z8, nisin Z 12.61 μg/g) was 0.000 %/brix. For the same sequence, the “glucose in fermentation media” value ([2]; tube Z8, nisin Z 12.61 μg/g) was 25.740 %/brix, the “glycerol in fermentation media” value ([2]; tube Z8, nisin Z 12.61 μg/g) was 0.346 %/brix and the “lactic acid in fermentation media” value ([2]; tube Z8, nisin Z 12.61 μg/g) was 1.652 %/brix. The “maltose in fermentation media” value ([2]; tube Z8, nisin Z 12.61 μg/g) was 0.876 %/brix, the “acetic acid in fermentation media” value ([2]; tube Z8, nisin Z 12.61 μg/g) was 8.261 %/brix and the “effect on tumors (in words)” value (head/neck tumors) was “can reduce tumorigenesis in mice”.
